In ChEMBL document CHEMBL5053486, “Defining Target Engagement Required for Efficacy In Vivo at the Retinoic Acid Receptor-Related Orphan Receptor C2 (RORγt)” (J Med Chem, 2021):
≈ marks a conversion by molar mass, not a printed value. Calls of active or inactive are those of the source. The rule behind the calls is not given here.

Key:
[1] = biological target: T1, Nuclear receptor ROR-gamma (Homo sapiens) (UniProt P51449); assay: Displacement of [3H]-25-hydroxycholesterol from His-Flag-tagged human RORgammat LBD (309 to 508 residues) expressed in Escherichia coli at 10 uM measured after 4 hrs by Microbeta counter based analysis relative to control
T1 sequence (whole entry): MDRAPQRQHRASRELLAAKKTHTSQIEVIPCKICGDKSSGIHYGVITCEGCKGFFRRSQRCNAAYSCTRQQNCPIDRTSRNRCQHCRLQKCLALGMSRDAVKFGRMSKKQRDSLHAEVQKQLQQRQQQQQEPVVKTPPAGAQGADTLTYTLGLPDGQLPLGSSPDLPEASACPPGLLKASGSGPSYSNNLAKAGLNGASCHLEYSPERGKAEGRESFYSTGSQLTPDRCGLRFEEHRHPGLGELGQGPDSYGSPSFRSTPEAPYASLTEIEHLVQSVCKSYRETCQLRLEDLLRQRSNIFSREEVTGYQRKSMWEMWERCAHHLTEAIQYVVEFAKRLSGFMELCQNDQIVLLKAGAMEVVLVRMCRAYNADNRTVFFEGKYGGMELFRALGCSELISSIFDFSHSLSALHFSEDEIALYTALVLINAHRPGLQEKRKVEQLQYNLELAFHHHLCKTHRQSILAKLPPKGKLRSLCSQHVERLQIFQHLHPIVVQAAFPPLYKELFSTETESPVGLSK

[2] = human, microsomes, 0.5 h, 2 µM
[3] = Apparent permeability from apical to basolateral side in dog MDCK cells at 20 uM at pH 7.4; assay type: ADME, cell-based, Canis lupus familiaris
[4] = Solubility of the compound in FaSSIF measured after 16 hrs by HPLC analysis; assay type: physicochemical
[5] = Fraction unbound in human plasma incubated for 4.5 hrs by LC/MS/MS analysis; assay type: ADME, cell-free
Mus musculus [6] = assay: Antiinflammatory activity against glucose-6-phosphate isomerase induced arthritis mouse model assessed as complete prophylaxis at 100 mg/kg administered once daily for 21 days from GPI immunization; assay type: functional, organism-based; details: time 21.0 day
Mus musculus [7] = assay: Antiinflammatory activity against glucose-6-phosphate isomerase induced arthritis mouse model assessed as improvement in clinical score at 10 to 30 mg/kg administered once daily for 21 days from GPI immunization; assay type: functional, organism-based; details: dose 10-30 mg/kg, time 21.0 day
Mus musculus [8] = assay: Antiinflammatory activity against glucose-6-phosphate isomerase induced arthritis mouse model assessed as reduction in IL-17 mRNA expression in paws at 3 mg/kg administered once daily for 21 days from GPI immunization by Taqman PCR analysis relative to control; assay type: functional; design: scale not given: the % may be the effect or the level left; details: time 21 day
Mus musculus [9] = assay: Antiinflammatory activity against glucose-6-phosphate isomerase induced arthritis mouse model assessed as reduction in IL-17 mRNA expression in paws at 10 mg/kg administered once daily for 21 days from GPI immunization by Taqman PCR analysis relative to control; assay type: functional; design: scale not given: the % may be the effect or the level left; details: time 21 day
Mus musculus [10] = assay: Antiinflammatory activity against glucose-6-phosphate isomerase induced arthritis mouse model assessed as reduction in IL-17 mRNA expression in paws at 30 mg/kg administered once daily for 21 days from GPI immunization by Taqman PCR analysis relative to control; assay type: functional; design: scale not given: the % may be the effect or the level left; details: time 21 day
PBMC = details: Mus musculus, dose 30-100 mg/kg, time 20-24 hrs
Description: Inhibition of IL-17A secretion in antiCD3/IL-23 stimulated mouse PBMC cells in mouse plasma at 30 to 100 mg/kg when plasma exposure above 1.8 uM for 20 to 24 hrs

cells = details: Mus musculus, PBMC
Description: Inhibition of IL-17A secretion in antiCD3/IL-23 stimulated mouse PBMC cells in mouse plasma preincubated for 2 hrs followed by antiCD3/IL23 stimulation and measured after 6 hrs by Taqman PCR analysis

| Compound | CL free [2] | Papp A→B at 20 µM [3] | solubility at 16 h [4] | fraction unbound at 4.5 h [5] | other results |
| --- | --- | --- | --- | --- | --- |
| COc1ccccc1-n1cc(CN2CCC3(CC2)OCC(F)(F)c2cc(Cl)sc23)c(C)n1 |  |  |  |  | Activity [1]: 52% |
| C[C@H](c1ccc(C#N)cc1)N1CCC2(CC1)OCCc1cc(C(=O)NCc3ccc(S(C)(=O)=O)cc3)sc12 | 218 mL/min/kg |  |  |  |  |
| CS(=O)(=O)c1ccc(CNC(=O)c2cc3c(s2)C2(CCN(Cc4ccc(C(F)(F)F)cc4)CC2)OCC3)cc1 | 448 mL/min/kg |  |  |  |  |
| CCS(=O)(=O)c1ccc(CNC(=O)c2cc3c(s2)C2(CCN([C@H](C)c4cnc(C(F)(F)F)nc4)CC2)O[C@@H](C)C3)cc1 | 36.2 mL/min/kg | 7.57 ×10⁻⁶ cm/s | 24 µg/mL (≈ 38.5 µM) | 0.041 |  |
| CS(=O)(=O)c1ccc(CNC(=O)c2cc3c(s2)C2(CCN(Cc4ccc(Cl)cc4)CC2)OCC3)cc1 | 495 mL/min/kg |  |  |  |  |
| CCS(=O)(=O)c1ccc(CNC(=O)c2cc3c(s2)C2(CCN([C@H](C)c4ccc(C#N)cc4)CC2)OCC3)nc1 | 92.2 mL/min/kg | 8.5 ×10⁻⁶ cm/s | 185 µg/mL (≈ 328 µM) | 0.05 |  |
| CCS(=O)(=O)c1ccc(CNC(=O)c2cc3c(s2)C2(CCN([C@H](C)c4ccc(C#N)cc4)CC2)OCC3)cc1 | 406 mL/min/kg | 7.07 ×10⁻⁶ cm/s | 9 µg/mL (≈ 16 µM) | 0.02 | Activity (Mus musculus [6]): Active; Activity (Mus musculus [7]): Active; Activity (Mus musculus [8]): 82%; Activity (Mus musculus [9]): 90%; Activity (Mus musculus [10]): 88%; inhibition (PBMC): Active; IC50 (cells): 1800 nM |
| CCS(=O)(=O)c1ccc(CNC(=O)c2cc3c(s2)C2(CCN([C@H](C)c4cnc(C(F)(F)F)nc4)CC2)OCC3)cc1 | 69.5 mL/min/kg | 8.56 ×10⁻⁶ cm/s | 16 µg/mL (≈ 26.3 µM) | 0.056 |  |
| CS(=O)(=O)c1ccc(CNC(=O)c2cc3c(s2)C2(CCN(Cc4ccc(Cl)cc4Cl)CC2)OCC3)cc1 | 3450 mL/min/kg |  |  |  |  |
| CCS(=O)(=O)c1ccc(CNC(=O)c2cc3c(s2)C2(CCN([C@H](C)c4cnc(C(F)(F)F)nc4)CC2)O[C@@H](C)C3)nc1 | 32 mL/min/kg | 9.07 ×10⁻⁶ cm/s | 220 µg/mL (≈ 353 µM) | 0.12 |  |
| CS(=O)(=O)c1ccc(CNC(=O)c2cc3c(s2)C2(CCN(Cc4ccc(C#N)cc4)CC2)OCC3)cc1 | 80.7 mL/min/kg |  |  |  |  |
